From US20250177352A1, “COMBINATION TREATMENT FOR CANCER” (LAEKNA LIMITED, priority 2022, published 2025)

Columns and labels:
[1] = system: Akt (protein kinase B); conditions: reversible, ATP-competitive; stated as known; cited from earlier work
[2] = system: MBT-2 cells; assay: Proliferation assay of mouse cancer cell lines (CellTiter-Lumi, ATP); type: cell-based; conditions: afuresertib 0.0001-10 μM, 3 days, FIG. 1
Description: The cell lines were obtained from Cobioer Biosciences Co. Ltd., Nanjing, China. 1,000 to 2,000 cells were seeded into 96-well plate, and induced with various concentrations of afuresertib (0.0001-10 μM) for 3 days at 37° C. with 5% CO2. The number of viable cells in culture was determined based on quantitation of the amount of ATP following the manufacturer's instructions (CellTiter-Lumi Kit, Beyotime).

[3] = system: mTNBC; conditions: historical control for mTNBC patients with PD-L1 negative status; cited from earlier work
[4] = system: solid tumors; conditions: literature values of approved antibodies; cited from earlier work

Compound	ORR, Phase I studies in solid tumors [4] [%]	other results
Cn1ncc(Cl)c1-c1cc(C(=O)N[C@H](CN)Cc2cccc(F)c2)sc1Cl [Afuresertib, N-{(1S)-2-amino-1-[(3-fluorophenyl)methyl]ethyl}-5-chloro-4-(4-chloro-1-methyl-1H-pyrazol-5-yl)-2-thiophenecarboxamide]	–	pan-AKT kinase inhibitor potency [1]: low-nanomolar; response of cell proliferation (cell viability) [2]: favorable response profile
CC(=O)O[C@H]1C(=O)[C@@]2(C)[C@H]([C@H](OC(=O)c3ccccc3)[C@]3(O)C[C@H](OC(=O)[C@H](O)[C@@H](NC(=O)c4ccccc4)c4ccccc4)C(C)=C1C3(C)C)[C@]1(OC(C)=O)CO[C@@H]1C[C@@H]2O [paclitaxel, [(1S,2S,3R,4S,7R,9S,10S,12R,15S)-4,12-diacetyloxy-15-[(2R,3S)-3-benzamido-2-hydroxy-3-phenylpropanoyl]oxy-1,9-dihydroxy-10,14,17,17-tetramethyl-11-oxo-6-oxatetracyclo[11.3.1.0^3,10.0^4-7]heptadec-13-en-2-yl]benzoate]	–	ORR, paclitaxel monotherapy, LOTUS Study [3]: 32%
Atezolizumab: anti-PD-L1 antibody (Genentech/Roche)	10	–
Avelumab: anti-PD-L1 antibody (Merck Serono and Pfizer)	9	–
Pembrolizumab: listed among other approved anti-PD-L1 antibodies from Phase I studies	5.3	–
